In ChEMBL document CHEMBL1201862, “PubChem BioAssay data set” (2004):
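Cultured in 96-well plates, cells were exposed to test compound for 48 hours across five concentrations. Abbreviation: GI50, concentration required for 50% inhibition of growth.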 Active and inactive are the calls of the source. Cut-off read from the data, not from the text of the source: active = GI50 up to about 1.1 µM and inactive = higher.

Columns and labels:
Test in all cases: NCI anticancer screen, dose series, 48 h
786-0 = system: 786-0
CCRF-CEM = system: CCRF-CEM
COLO 205 = system: COLO 205
DLD-1 = system: DLD-1
HCC 2998 = system: HCC 2998
HCT-15 = system: HCT-15
HOP-62 = system: HOP-62
HT-29 = system: HT-29
Hs-578T = system: Hs-578T
IGROV-1 = system: IGROV-1
MDA-MB-435 = system: MDA-MB-435
NCI-H23 = system: NCI-H23
NCI-H522 = system: NCI-H522
OVCAR-8 = system: OVCAR-8
PC-3 = system: PC-3
RPMI-8226 = system: RPMI-8226
SK-MEL-2 = system: SK-MEL-2
SNB-75 = system: SNB-75
TK-10 = system: TK-10
U-251 = system: U-251

Row | SMILES | GI50 (786-0) | GI50 (CCRF-CEM) | GI50 (COLO 205) | GI50 (DLD-1) | GI50 (HCC 2998) | GI50 (HCT-15) | GI50 (HOP-62) | GI50 (HT-29) | GI50 (Hs-578T) | GI50 (IGROV-1) | GI50 (MDA-MB-435) | GI50 (NCI-H23) | GI50 (NCI-H522) | GI50 (OVCAR-8) | GI50 (PC-3) | GI50 (RPMI-8226) | GI50 (SK-MEL-2) | GI50 (SNB-75) | GI50 (TK-10) | GI50 (U-251)
1 | O=S1(=O)CCN(c2ccccc2CC(c2c[nH]c3ccccc23)c2c[nH]c3ccccc23)CC1 | 6.03 µM (inactive) | 1.99 µM (inactive) | 3.03 µM (inactive) | 4.37 µM (inactive) | 3.64 µM (inactive) | 4.94 µM | 13.6 µM (inactive) | 4.59 µM (inactive) | 7.71 µM (inactive) | 6.93 µM (inactive) | 5.62 µM (inactive) | 6.67 µM (inactive) | 4.49 µM (inactive) | 8.55 µM (inactive) | 3.64 µM (inactive) | 1.75 µM (inactive) | 6.24 µM (inactive) | 5.02 µM (inactive) | 5.32 µM (inactive) | 7.87 µM (inactive)
2 | Nc1ccn(C2OC(COC(=O)C34CC5CC(CC(C5)C3)C4)C(O)C2O)c(=O)n1 (configuration not stated) | > 100 µM (inactive) | 0.101 µM (active) | 59 µM (inactive) | > 100 µM (inactive) | > 69.3 µM (inactive) | > 70.6 µM | 0.973 µM (active) | > 57.5 µM (inactive) | > 100 µM (inactive) | > 100 µM (inactive) | > 100 µM (inactive) | 12.2 µM (inactive) | 10.7 µM (inactive) | 24.2 µM (inactive) | > 100 µM (inactive) | > 100 µM (inactive) | > 100 µM (inactive) | > 100 µM (inactive) | > 100 µM (inactive) | > 100 µM (inactive)
3 | O=C1C(=O)N(c2ccc(Cl)cc2Cl)C(=O)C(=O)C1c1nc2ccccc2s1 | > 100 µM (inactive) | 25 µM (inactive) | > 100 µM (inactive) | > 51.8 µM (inactive) | > 100 µM (inactive) | > 89.1 µM | > 100 µM (inactive) | > 82.2 µM (inactive) |  | > 100 µM (inactive) |  | > 64 µM (inactive) | 24.5 µM (inactive) | > 100 µM (inactive) |  | 48 µM (inactive) | > 100 µM (inactive) | 20.9 µM (inactive) | > 100 µM (inactive) | > 43.9 µM (inactive)
4 | CN(C)C(=O)/N=c1\ss/c(=N\C(=S)N(C)C)n1-c1ccccc1 | 19.6 µM (inactive) | 0.184 µM (active) | 35.3 µM (inactive) | 26.6 µM (inactive) | > 100 µM (inactive) | 15 µM | > 68.9 µM (inactive) |  |  | 29.4 µM (inactive) |  | 18.7 µM (inactive) | < 0.01 µM (active) | 20.9 µM (inactive) |  | 17 µM (inactive) | > 57 µM (inactive) | 13.8 µM (inactive) | 31.4 µM (inactive) | 27 µM (inactive)
5 | O=C(O)c1ccccc1C1c2ccc(Cl)cc2Oc2cc(Cl)ccc21 | > 100 µM (inactive) | > 100 µM (inactive) | > 100 µM (inactive) | > 100 µM (inactive) | > 100 µM (inactive) | > 100 µM | > 100 µM (inactive) | > 100 µM (inactive) |  | > 100 µM (inactive) |  | > 100 µM (inactive) | > 100 µM (inactive) | > 100 µM (inactive) |  | > 100 µM (inactive) | > 100 µM (inactive) | > 100 µM (inactive) | > 100 µM (inactive) | > 100 µM (inactive)
6 | CC(C)CCCC(C)[C@H]1CCC2[C@@H]3CCC4Nc5c(cnn5-c5ccccc5)C[C@]4(C)C3CC[C@@]21C (some centres not stated) | 15.7 µM (inactive) | 7.45 µM (inactive) | 8.75 µM (inactive) | > 100 µM (inactive) | 15.8 µM (inactive) | 23.3 µM | 14.3 µM (inactive) | 10.6 µM (inactive) |  | > 100 µM (inactive) |  | 26.1 µM (inactive) | 43.1 µM (inactive) | 61 µM (inactive) |  | 3.61 µM (inactive) | 23.4 µM (inactive) | 2.88 µM (inactive) | > 100 µM (inactive) | 12.5 µM (inactive)
